Measured values as given in PubChem BioAssay (NCI).
Several values for one entry are separate records, joined by “and”; a condition that tells them apart may be missing. Identical values can stand only once.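 96-well plates; 48 h exposure; 5 concentrations. Endpoints by linear interpolation between flanking doses. Not reached: highest tested concentration assigned. GI50: concentration for 50% inhibition of growth. Definition used: TGI = concentration required for complete inhibition of growth.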 *1 amine or outer side, *2 acyl side, *3 side chain or, on linkers, in order; H or OH if unused. Where a SMILES comes first, the peptide text is derived from it. [ ]: non-standard residue; d: D form. The star is where a group is joined. X12 = NCCCCC(N[*:1])C(=O)CN1CCCC1C(=O)[*:2]; Pentadecanoyl = CCCCCCCCCCCCCCC(=O)*

Legend:
Assay in all cases: NCI tumour cell line growth inhibition, 48 h
ACHN renal = test system: ACHN renal
IGROV1 ovarian = test system: IGROV1 ovarian
MALME-3M melanoma = test system: MALME-3M melanoma
MDA-MB-435 = test system: MDA-MB-435
MOLT-4 leukemia = test system: MOLT-4 leukemia
NCI-H226 lung = test system: NCI-H226 lung
NCI/ADR-RES ovarian = test system: NCI/ADR-RES ovarian
RPMI-8226 leukemia = test system: RPMI-8226 leukemia
SW-620 colon = test system: SW-620 colon
HCC-2998 colon = test system: HCC-2998 colon

Compound	TGI (ACHN renal) [µM]	TGI (IGROV1 ovarian) [µM]	TGI (MALME-3M melanoma) [µM]	TGI (MDA-MB-435) [µM]	TGI (MOLT-4 leukemia)	TGI (NCI-H226 lung) [µM]	TGI (NCI/ADR-RES ovarian) [µM]	TGI (RPMI-8226 leukemia) [µM]	TGI (SW-620 colon) [µM]	TGI (HCC-2998 colon)	GI50 (HCC-2998 colon) [µM]	GI50 (IGROV1 ovarian) [µM]	GI50 (MOLT-4 leukemia) [µM]	GI50 (NCI-H226 lung) [µM]	GI50 (NCI/ADR-RES ovarian) [µM]	GI50 (RPMI-8226 leukemia) [µM]	GI50 (SW-620 colon) [µM]	GI50 (MALME-3M melanoma) [µM]	GI50 (MDA-MB-435) [µM]
CC1CC/C(=C\c2ccc(F)cc2)C2=C1C(c1ccc(F)cc1)NC(=S)N2 (stereo not given)	> 100	> 100	87.3	> 100	> 100 µM	> 100	> 100	> 100	> 100	–	–	–	–	–	–	–	–	–	–
COc1ccc(C(OCC2OC(n3ccc(Oc4c(F)c(F)c(F)c(F)c4F)nc3=O)CC2OP(OCCC#N)N(C(C)C)C(C)C)(c2ccccc2)c2ccc(OC)cc2)cc1 (stereo not given)	> 100	> 100	–	> 100	> 100 µM	> 100	> 100	> 100	> 100	> 100 µM	–	–	–	–	–	–	–	–	–
COc1ccc(-c2nc3ncccn3c2-c2ccc(S(C)(=O)=O)cc2)cc1	> 100	> 100	–	> 100	> 100 µM	–	> 100	> 100	> 100	–	–	–	–	–	–	–	–	–	–
O=c1[nH]c(=O)c2c([nH]1)[nH]c1ccccc12	> 100	> 100	> 100	> 100	> 100 µM	> 100	> 100	> 100	> 100	–	–	–	–	–	–	–	–	–	–
N#CC(NNC(=O)c1c(Cl)c(Cl)c(Cl)c(Cl)c1-c1nc2ccc(C(=O)c3ccccc3)cc2[nH]1)c1cccc(Oc2ccccc2)c1 (stereo not given)	88.8	93.1	–	53.6	> 100 µM	53.1	57.1	91.8	> 100	–	–	–	–	–	–	–	–	–	–
Cc1nc2cccc(F)c2c(=O)n1-c1nnc(C2CC2)s1	> 10	> 10	–	> 10	> 10 µM	> 10	> 10	> 10	> 10	> 10 µM	–	–	–	–	–	–	–	–	–
COc1ccc(Nc2ccnc3cc(Cl)ccc23)cc1CN(CCCl)CCCl	–	4.19	–	–	2.61 µM	4.17	> 100	4.85	7.38	4.54 µM	1.68	1.31	0.662	1.63	3.84	1.15	1.59	–	–
H-KIFKKFKTIIKKVWRIFGRF-NH2	–	–	–	–	> 100 µM	–	9.57	> 100	–	7.68 µM	2.65	–	3.13	–	2.95	3.11	–	–	–
O=c1cc(-c2ccccc2)[nH]c2c(F)ccc(F)c12	> 100	> 100	96.3	–	> 100 µM	> 100	–	> 100	> 100	–	–	–	–	–	–	–	–	–	–
COC1OC(=O)C(OC)C(OC)C1OC (stereo not given)	> 100	> 100	–	> 100	> 100 µM	> 100	> 100	> 100	> 100	> 100 µM	–	–	–	–	–	–	–	–	–
COc1cccc2c1C(=O)c1c(O)c3c(c(O)c1C2=O)C[C@@](O)(C(=O)CO)CC3OC1CC(NCCCCC(OC(C)=O)OC(C)=O)C(O)C(C)O1 (stereo not given in full)	0.0057	> 1	–	–	0.00909 µM and 0.00236 µM	0.00568	–	0.00313	> 1	0.00495 µM and 0.00577 µM	–	0.00355	0.000378	–	–	0.000528	0.00175	–	–
CC(C)(C)C1=CC(O)(c2c3ccccc3c(C3(O)C=C(C(C)(C)C)C(=O)C(C(C)(C)C)=C3)c3ccccc23)C=C(C(C)(C)C)C1=O	> 100	> 100	> 100	0.0354	> 100 µM	> 100	> 100	> 100	> 100	–	–	–	–	–	–	–	–	–	–
N#Cc1nc(C(=O)c2ccccc2)oc1N	> 100	> 100	–	> 100	> 100 µM	–	–	> 100	> 100	–	–	–	–	–	–	–	–	–	–
CCCCCCCCCCCCCCC(=O)NC(CCCCN)C(=O)CN1CCCC1C(=O)NCC(=O)NC(Cc1ccccc1)C(=O)N1CCCC1C(=O)NC(CO)C(=O)NC(Cc1ccc(O)cc1)C(=O)NC(CCCCN)C(=O)NC(CC(C)C)C(=O)NC(CCCN=C(N)N)C(=O)N1CCCC1C(=O)NCC(N)=O (stereo not given) (Pentadecanoyl-[X12]GFPSYKLRPG-NH2; configuration not given here)	–	57.3	32.2	89.3	34.6 µM	38.6	43.7	30.8	80.9	35.2 µM	17.7	19.5	16.3	17.8	20.6	14.7	29.9	8.11	28.2
O=C(N(C1=CCCC1)N(c1ccccc1)c1ccccc1)C(F)(F)F	38.8	–	14.4	50.4	76.2 µM	42.3	87.9	–	66.8	33.8 µM	–	–	–	–	–	–	–	–	–
Oc1cccc(-c2cn3cc(Cl)ccc3n2)c1	> 100	> 100	> 100	> 100	> 100 µM	> 100	> 100	–	> 100	> 100 µM	–	–	–	–	–	–	–	–	–
O=C(CSCC(=O)N/N=C\c1cccc(Br)c1)N/N=C\c1cccc(Br)c1	26.4	47	–	44.7	73 µM	36.5	34.1	–	77.4	–	–	–	–	–	–	–	–	–	–
CCC(C)Cn1c(C)nc2c1C(=O)c1ccccc1C2=O (stereo not given)	> 100	> 100	73.7	–	> 100 µM	> 100	–	–	> 100	> 100 µM	–	–	–	–	–	–	–	–	–
CN(C)CCSc1nccc(-c2ccc(-c3ccnc(SCCN(C)C)n3)s2)n1	–	28.8	24.2	–	10 µM	27.7	19.9	10.1	18.1	18.6 µM	–	–	–	–	–	–	–	–	–
Cc1nc(C)c(C(=O)NNC(=O)c2ccccc2)cc1C(=O)NNC(=O)c1ccccc1	> 100	> 10	–	> 100	> 100 µM	> 100	> 100	> 100	> 100	> 100 µM	–	–	–	–	–	–	–	–	–
CCOC(=O)CCC1(C(=O)O[C@@H]2C[C@H](C)CC[C@H]2C(C)C)CCCCC1=O (stereo not given in full)	> 100	> 100	> 100	> 100	> 100 µM	> 100	> 100	> 100	> 100	–	–	–	–	–	–	–	–	–	–
